Read-outs that look alike come from different tables or passages of the source.
Assays:
[1] = biological target: T1, 293T-Dual hSTING-R232 cells (Homo sapiens, UniProt Q86WV6, H232R); assay: 293T R232 cell reporter assay (HEK 293T reporter assay); type: cell-based; conditions: digitonin 10 μg/mL, 30 min exposure, 20 h incubation
T1 construct: host or cells: 293T-Dual hSTING-R232 cells (HEK 293T)
Description: 293T-Dual hSTING-R232 cells (Invivogen) were plated in 96 well plates at a density of 5×10^4 cells per well in DMEM supplemented with 10% FBS, 1% Pen-Strep, 1% non-essential amino acids, 1% glutamine, and 1% HEPES. Assay setup took place after allowing cells to adhere for 48 h. Compounds dissolved in water were serially diluted in dosing buffer containing 10 μg/mL digitonin. Media was aspirated from the cells, and 50 μL buffer with compound was added in triplicate. After 30 min at 37° C., buffer was aspirated and replaced with 100 μL media. Cells were incubated for 20 h at 37° C., 5% CO2. IFN-beta expression and activation of the interferon regulatory factor (IRF) were measured based on luciferase and alkaline phosphatase reporter activity, respectively. Cell viability was determined in parallel.

[2] = system: CT26 colon carcinoma; assay: CT26 mouse colon carcinoma in vivo efficacy study, intratumoral dosing; conditions: for Cure Rate (TV < 10 mm^3) / Treatment Failure (TV > 2000 mm^3): 100 μg intratumorally, 3 times, three days apart, BALB/c mice
Description: (§1) The in vivo antitumoral activity of compounds of Formula (I) were studied in the mouse CT26 colon carcinoma model. 10 female 9-week old BALB/c mice/group were implanted subcutaneously with 3×10^5 cells on the flank. Caliper measurements to assess the tumor volume (TV) and body weight measurements were performed daily for the first 8 days and biweekly thereafter until the end of the study. Dosing started when the tumor volumes reached a size of 100 mm^3. The compounds of Formula (I) were tested in two separate studies with their respective vehicle control. Compounds of Formula (I) were dosed 3 times, three days apart, intratumorally at either 25 or 100 μg. The human endpoint is predefined as a TV of 2000 mm^3.

[3] = system: CT26 colon carcinoma; assay: CT26 mouse colon carcinoma study, intratumoral or subcutaneous administration; type: in vivo
Description: as §1
The in vivo antitumoral activity of compounds of Formula (I) after intratumoral of subcutaneous administration was studied in the mouse CT26 colon carcinoma model. The study was performed as in the first paragraph of Example C. Compounds of Formula (I) were dosed 2 or 3 times, three days apart (q3d) or 7 days apart (qw), intratumorally at either […] or subcutaneously at either 1 or 4 mg/kg.

[4] = system: CT26 colon carcinoma; assay: CT26 mouse colon carcinoma combination study with anti-CTLA-4 (clone 9H10); type: in vivo
Description: as §1
The in vivo antitumoral activity of compounds of Formula (I) in combination with the immune checkpoint inhibitor anti-CTLA-4 (clone 9H10) was studied in the mouse CT26 colon carcinoma model. The study was performed as described in the first paragraph of Example C.

[5] = alkaline phosphatase reporter, read-out: EC50 [μM] IRF reporter
[6] = luciferase reporter, read-out: EC50 [μM] IRN-β reporter
[7] = three times subcutaneously at 4 mg/kg

T1 sequence (Q86WV6 whole entry H232R): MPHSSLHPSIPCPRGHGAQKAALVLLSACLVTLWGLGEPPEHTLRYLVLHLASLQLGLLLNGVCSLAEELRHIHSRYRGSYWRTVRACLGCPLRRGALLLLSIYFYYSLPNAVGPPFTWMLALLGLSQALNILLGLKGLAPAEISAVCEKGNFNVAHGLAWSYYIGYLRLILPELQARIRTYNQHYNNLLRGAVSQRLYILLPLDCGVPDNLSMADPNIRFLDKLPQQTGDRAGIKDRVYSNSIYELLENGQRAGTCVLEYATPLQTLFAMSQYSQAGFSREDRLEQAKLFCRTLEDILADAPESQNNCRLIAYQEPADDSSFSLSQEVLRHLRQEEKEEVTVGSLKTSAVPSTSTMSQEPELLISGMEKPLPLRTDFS

Row | SMILES | EC50 [1, 5] | EC50 [1, 6] | Cure Rate (TV < 10 mm^3) [2] | Treatment Failure (TV > 2000 mm^3) [2] | also measured
1 | Nc1nc2c(ncn2C2OC34COC2C3OP(=O)(O)OCC23CC2C(n2cnc5c(N)ncnc52)C(O)C3OP(=O)(S)OC4)c(=O)[nH]1 (centres unmarked) [Compound 1-21b] | < 0.25 µM | < 0.25 µM | 50% | 50% | 
2 | Nc1ncnc2c1ncn2[C@H]1[C@H](O)[C@@H]2O[P@@](=O)([S][Na])OC[C@H]3O[C@@H](n4cnc5c(=O)[nH]cnc54)[C@H](F)[C@@H]3OP(=O)(O)OC[C@@]23C[C@H]13 [Compound 1-20b] |  |  | 50% | 50% | EC50 ([1]; EC50 [μM] IRF reporter, alkaline phosphatase reporter): < 0.25 µM; EC50 ([1]; EC50 [μM] IRN-β reporter, luciferase reporter): < 0.25 µM
3 | CO[C@H]1[C@H]2OP(=O)(O)OC[C@]34C[C@@H]3[C@@H](n3cnc5c(N)ncnc53)[C@H](O)[C@@H]4O[P@@](=O)([S][Na])OC[C@H]1O[C@H]2n1cnc2c(=O)[nH]c(N)nc21 [Compound 10-b] |  |  |  |  | animals with complete tumor suppression ([3]; dosed intratumorally at 100 μg): 4/10; animals with complete tumor suppression [3, 7]: 1/10; delay of tumor growth [3, 7]: further delay in tumor growth; delay of tumor growth compared to the vehicle group ([3]; two subcutaneous administrations at 4 mg/kg): approx. 8 days; Complete Tumor Suppression (TV < 10 mm^3) ([4]; 25 μg, IT/3 × q3d): 0; Treatment Failure (TV > 2000 mm^3) ([4]; 25 μg, IT/3 × q3d): 100; delay of tumor growth ([4]; three IT doses of 25 g): approx. 8 days
4 | Nc1nc2c(ncn2C2SC3COP(=O)(S)OC4C(O)C(n5cnc6c(N)ncnc65)C5CC54COP(=O)(O)OC2C3O)c(=O)[nH]1 (single isomer, unassigned) [Compound 1-30a] | 0.25 to 100 µM | 0.25 to 100 µM |  |  | 

Further lines, with some results ahead:

Row | EC50 [1, 5] | EC50 [1, 6] | SMILES | Cure Rate (TV < 10 mm^3) [2] | Treatment Failure (TV > 2000 mm^3) [2] | also measured
5 | < 0.25 µM | < 0.25 µM | Nc1nc2c(ncn2[C@@H]2O[C@@H]3CO[P@](=O)([S][Na])O[C@H]4[C@@H](O)[C@H](n5cnc6c(N)ncnc65)[C@H]5C[C@]54COP(=O)([O-])O[C@@H]2[C@@H]3F)c(=O)[nH]1.[Na+] [Compound 1-22b] | 56% | 44% | 
6 | < 0.25 µM | < 0.25 µM | CO[C@H]1[C@H]2OP(=O)([O-])OC[C@@]34C[C@@H]3[C@@H](n3cnc5c(N)ncnc53)[C@H](O)[C@@H]4OP(=O)([O-])OC[C@H]1O[C@H]2n1cnc2c(=O)[nH]c(N)nc21.[Na+].[Na+] [Compound 1-1] | 40% | 40% | tumor-free animals at the end of the study ([2]; three intratumoral doses of 100 g, 10 mice/group): 4 out of 10

Source: patent US11787833B2, “Modified cyclic dinucleoside compounds as sting modulators” (ALIGOS THERAPEUTICS, INC., priority 2019, dated 2023)
